Results from patent US9169252B2 (BRISTOL-MYERS SQUIBB COMPANY, priority 2014, dated 2015).

Experiments:
IRAK4 = IRAK4 (Homo sapiens (Human), UniProt Q9NWZ3); experiment: IRAK4 Inhibition Assay; format: biochemical; conditions: IRAK4 Inhibition Assay; ATP 500 μM; read-out: IRAK4 IC50
Procedure, shortened: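 IRAK4 combined with fluorescent substrate and compounds, reacted 60 min at room temperature, stopped with 35 mM EDTA. Substrate and phosphorylated product separated electrophoretically on a Caliper LabChip 3000 mobility-shift reader.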

[1] = test system: TLR2 induced IL-6 in peripheral blood mononuclear cells (PBMCs); experiment: PBMC TLR2 Induced IL-6 Assay; format: cell-based, human; conditions: Homo sapiens, PBMC, PBMC TLR2 Induced IL-6 Assay, lipoteichoic acid stimulation, IL-6 by ELISA; for EC50: read-out: Cell EC50; for IC50: read-out: Cell IC50
Procedure, shortened: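 Lipoteichoic acid at 10 µg/ml served as TLR2 stimulus for 5 hours, following a 30-minute compound pretreatment at 37° C. Cells were Ficoll-isolated human PBMCs, 250000 cells/well, cultured in RPMI plus 10% heat-inactivated FCS.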

Chain of IRAK4 (Q9NWZ3 whole entry, species assumed): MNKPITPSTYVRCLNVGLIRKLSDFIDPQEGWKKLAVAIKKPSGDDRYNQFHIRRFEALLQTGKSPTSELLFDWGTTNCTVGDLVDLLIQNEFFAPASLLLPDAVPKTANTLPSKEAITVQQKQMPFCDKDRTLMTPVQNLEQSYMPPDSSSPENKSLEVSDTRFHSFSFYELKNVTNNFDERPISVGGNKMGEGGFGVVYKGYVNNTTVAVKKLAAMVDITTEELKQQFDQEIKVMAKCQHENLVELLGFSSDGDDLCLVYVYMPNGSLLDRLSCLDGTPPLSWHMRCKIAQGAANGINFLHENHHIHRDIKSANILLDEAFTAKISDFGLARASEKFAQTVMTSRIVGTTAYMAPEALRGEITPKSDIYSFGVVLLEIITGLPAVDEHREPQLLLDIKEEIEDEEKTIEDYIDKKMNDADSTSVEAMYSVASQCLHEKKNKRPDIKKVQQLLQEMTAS

IC50 (IRAK4) [nM]	Compound	EC50 [1] [nM]	IC50 [1] [nM]
2	CC(C)(O)[C@H](F)CNC(=O)c1cnc(-n2ccc3cncnc32)cc1NC1CCOCC1 [Example 40, (R)—N-(2-fluoro-3-hydroxy-3-methylbutyl)-6-(7H-pyrrolo[2,3-d]pyrimidin-7-yl)-4-((tetrahydro-2H-pyran-4-yl)amino)nicotinamide]	175	175
1.9	CC(C)(O)[C@H](F)CNC(=O)c1cnc(-n2ccc3cncnc32)cc1NC1CC1 [Example 41, (R)-4-(cyclopropylamino)-N-(2-fluoro-3-hydroxy-3-methylbutyl)-6-(7H-pyrrolo[2,3-d]pyrimidin-7-yl)nicotinamide]	220	220
13.6	CC(C)(O)CNc1cc(-n2ccc3cncnc32)ncc1C(=O)NC[C@@H](F)C(C)(C)O [Example 42, (R)—N-(2-fluoro-3-hydroxy-3-methylbutyl)-4-((2-hydroxy-2-methylpropyl)amino)-6-(7H-pyrrolo[2,3-d]pyrimidin-7-yl)nicotinamide]	612	940
6	CC(C)(O)CCNC(=O)c1cnc(-n2ccc3cncnc32)cc1NC1CCOCC1 [Example 43, N-(3-hydroxy-3-methylbutyl)-6-(7H-pyrrolo[2,3-d]pyrimidin-7-yl)-4-((tetrahydro-2H-pyran-4-yl)amino)nicotinamide]	316	–
4.2	CC(C)Nc1cc(-n2ccc3cncnc32)ncc1C(=O)NCCC(C)(C)O [Example 44, N-(3-hydroxy-3-methylbutyl)-4-(isopropylamino)-6-(7H-pyrrolo[2,3-d]pyrimidin-7-yl)nicotinamide]	98	–
23.2	CC(=O)Nc1cnc2c(ccn2-c2cc(NC(C)C)c(C(=O)NC[C@@H](F)C(C)(C)O)cn2)c1 [Example 45, (R)-6-(5-acetamido-1H-pyrrolo[2,3-b]pyridin-1-yl)-N-(2-fluoro-3-hydroxy-3-methylbutyl)-4-(isopropylamino)nicotinamide]	148	–
2.2	CC(C)(O)[C@H](F)CNC(=O)c1cnc(-n2ccc3cc(C#N)cnc32)cc1Nc1cccc(O)c1 [Example 46, (R)-6-(5-cyano-1H-pyrrolo[2,3-b]pyridin-1-yl)-N-(2-fluoro-3-hydroxy-3-methylbutyl)-4-((3-hydroxyphenyl)amino)nicotinamide]	23	–
5.6	CC(C)Nc1cc(-n2ccc3cc(C#N)cnc32)ncc1C(=O)NCCCOC(C)C [Example 47, 6-(5-cyano-1H-pyrrolo[2,3-b]pyridin-1-yl)-N-(3-isopropoxypropyl)-4-(isopropylamino) nicotinamide]	173	–
1.9	CC(C)(O)[C@H](F)CNC(=O)c1cnc(-n2ccc3cc(C#N)cnc32)cc1Nc1cccc(S(N)(=O)=O)c1 [Example 50, (R)-6-(5-cyano-1H-pyrrolo[2,3-b]pyridin-1-yl)-N-(2-fluoro-3-hydroxy-3-methylbutyl)-4-((3-sulfamoylphenyl)amino)nicotinamide]	58	–
2.4	CC(C)(O)[C@H](F)CNC(=O)c1cnc(-n2ccc3cc(C#N)cnc32)cc1NC[C@@H](F)C(C)(C)O [Example 52, 6-(5-cyano-1H-pyrrolo[2,3-b]pyridin-1-yl)-N—((R)-2-fluoro-3-hydroxy-3-methylbutyl)-4-(((R)-2-fluoro-3-hydroxy-3-methylbutyl)amino)nicotinamide]	66	–
1.9	CC(C)(O)[C@H](F)CNC(=O)c1cnc(-n2ccc3cc(C#N)cnc32)cc1NC1CC(F)(F)C1 [Example 53, (R)-6-(5-cyano-1H-pyrrolo[2,3-b]pyridin-1-yl)-4-((3,3-difluorocyclobutyl)amino)-N-(2-fluoro-3-hydroxy-3-methylbutyl)nicotinamide]	271	–
1.8	CC(=O)Nc1cccc(Nc2cc(-n3ccc4cc(C#N)cnc43)ncc2C(=O)NC[C@@H](F)C(C)(C)O)c1 [Example 54, (R)-4-((3-acetamidophenyl)amino)-6-(5-cyano-1H-pyrrolo[2,3-b]pyridin-1-yl)-N-(2-fluoro-3-hydroxy-3-methylbutyl) nicotinamide]	254	–
3.6	CNC(=O)c1cccc(Nc2cc(-n3ccc4cc(C#N)cnc43)ncc2C(=O)NC[C@@H](F)C(C)(C)O)c1 [Example 55, (R)-6-(5-cyano-1H-pyrrolo[2,3-b]pyridin-1-yl)-N-(2-fluoro-3-hydroxy-3-methylbutyl)-4-((3-(methylcarbamoyl)phenyl)amino)nicotinamide]	513	–
2.5	CC(C)(O)[C@H](F)CNC(=O)c1cnc(-n2ccc3cc(C#N)cnc32)cc1Nc1cccc(C(N)=O)c1 [Example 56, (R)-4-((3-carbamoylphenyl)amino)-6-(5-cyano-1H-pyrrolo[2,3-b]pyridin-1-yl)-N-(2-fluoro-3-hydroxy-3-methylbutyl)nicotinamide]	102	–
1.5	CC(C)(O)[C@H](F)CNC(=O)c1cnc(-n2ccc3cc(C#N)cnc32)cc1Nc1cccc(NS(C)(=O)=O)c1 [Example 57, (R)-6-(5-cyano-1H-pyrrolo[2,3-b]pyridin-1-yl)-N-(2-fluoro-3-hydroxy-3-methylbutyl)-4-((3-(methylsulfonamido)phenyl)amino) nicotinamide]	173	–
2.7	CC(C)Nc1cc(-n2ccc3cc(C#N)cnc32)ncc1C(=O)NCCc1ccc(S(N)(=O)=O)cc1 [Example 58, 6-(5-cyano-1H-pyrrolo[2,3-b]pyridin-1-yl)-4-(isopropylamino)-N-(4-sulfamoylphenethyl)nicotinamide]	49	–
1.6	CC(C)(O)c1cccc(Nc2cc(-n3ccc4cc(C#N)cnc43)ncc2C(=O)NC[C@@H](F)C(C)(C)O)c1 [Example 59, (R)-6-(5-cyano-1H-pyrrolo[2,3-b]pyridin-1-yl)-N-(2-fluoro-3-hydroxy-3-methylbutyl)-4-((3-(2-hydroxypropan-2-yl)phenyl)amino) nicotinamide]	153	–
1.8	CC(C)(O)[C@H](F)CNC(=O)c1cnc(-n2ccc3cc(C#N)cnc32)cc1Nc1ccc(C(N)=O)cc1 [Example 60, (R)-4-((4-carbamoylphenyl)amino)-6-(5-cyano-1H-pyrrolo[2,3-b]pyridin-1-yl)-N-(2-fluoro-3-hydroxy-3-methylbutyl)nicotinamide]	24	–
1.3	CC(C)(O)[C@H](F)CNC(=O)c1cnc(-n2ccc3cc(C#N)cnc32)cc1N[C@H]1CC[C@@](C)(O)CC1 [Example 61, 6-(5-cyano-1H-pyrrolo[2,3-b]pyridin-1-yl)-N—((R)-2-fluoro-3-hydroxy-3-methylbutyl)-4-(((1s,4S)-4-hydroxy-4-methylcyclohexyl)amino)nicotinamide]	34	–
3.6	CC(C)(O)[C@H](F)CNC(=O)c1cnc(-n2ccc3cc(C#N)cnc32)cc1N[C@H]1CC[C@](C)(O)CC1 [Example 62, 6-(5-cyano-1H-pyrrolo[2,3-b]pyridin-1-yl)-N—((R)-2-fluoro-3-hydroxy-3-methylbutyl)-4-(((trans)-4-hydroxy-4-methylcyclohexyl)amino)nicotinamide]	143	–
4.1	CC(C)Nc1cc(-n2ccc3cc(C#N)cnc32)ncc1C(=O)NCCNS(C)(=O)=O [Example 63, 6-(5-cyano-1H-pyrrolo[2,3-b]pyridin-1-yl)-4-(isopropylamino)-N-(2-(methylsulfonamido)ethyl)nicotinamide]	12	–
1.7	CC(C)(O)[C@H](F)CNC(=O)c1cnc(-n2ccc3cc(C#N)cnc32)cc1Nc1ccc2ncsc2c1 [Example 64, (R)-4-(benzo[d]thiazol-6-ylamino)-6-(5-cyano-1H-pyrrolo[2,3-b]pyridin-1-yl)-N-(2-fluoro-3-hydroxy-3-methylbutyl)nicotinamide]	93	–
1.5	CC(C)(O)[C@H](F)CNC(=O)c1cnc(-n2ccc3cc(C#N)cnc32)cc1NCC1(F)CCC1 [Example 65, (R)-6-(5-cyano-1H-pyrrolo[2,3-b]pyridin-1-yl)-N-(2-fluoro-3-hydroxy-3-methylbutyl)-4-(((1-fluorocyclobutyl)methyl)amino) nicotinamide]	100	–
1.7	CC(C)(O)[C@H](F)CNC(=O)c1cnc(-n2ccc3cc(C#N)cnc32)cc1Nc1cccc(C#N)c1 [Example 66, (R)-6-(5-cyano-1H-pyrrolo[2,3-b]pyridin-1-yl)-4-((3-cyanophenyl)amino)-N-(2-fluoro-3-hydroxy-3-methylbutyl)nicotinamide]	201	–
1.7	CC(C)(O)[C@H](F)CNC(=O)c1cnc(-n2ccc3cc(C#N)cnc32)cc1Nc1ccc(-n2cccn2)cc1 [Example 67]	102	–
2.1	CC(C)(O)[C@H](F)CNC(=O)c1cnc(-n2ccc3cc(C#N)cnc32)cc1Nc1ccc(-n2cncn2)cc1 [Example 68]	30	–
1.3	Cn1nnnc1-c1ccc(Nc2cc(-n3ccc4cc(C#N)cnc43)ncc2C(=O)NC[C@@H](F)C(C)(C)O)cc1 [Example 69, (R)-6-(5-cyano-1H-pyrrolo[2,3-b]pyridin-1-yl)-N-(2-fluoro-3-hydroxy-3-methylbutyl)-4-((4-(1-methyl-1H-tetrazol-5-yl)phenyl)amino)nicotinamide]	50	–
2.8	CC(C)Nc1cc(-n2ccc3cc(C#N)cnc32)ncc1C(=O)NCC(=O)NC1CCS(=O)(=O)C1 (centres unmarked) [Example 70, 6-(5-cyano-1H-pyrrolo[2,3-b]pyridin-1-yl)-N-(2-((1,1-dioxidotetrahydrothiophen-3-yl)amino)-2-oxoethyl)-4-(isopropylamino)nicotinamide]	210	–
